# Measured values: BindingDB's records for patent US8987287 (Purdue Pharma, 2015)
# What was measured:
# [1] = biological target: Kappa-type opioid receptor (Homo sapiens, UniProt P41145); experiment: Radioligand Dose-Displacement Binding Assay; conditions: pH 7.4; 25 °C
# Protocol: Radioligand dose displacement assays used 0.4 nM [3H]-U69,593 (GE Healthcare, Piscataway, N.J.; 40 Ci/mmole) with 15 ug membrane protein (recombinant kippa opioid receptor expressed in HEK 293 cells; in-house prep) in a final volume of 200 ul binding buffer (5% DMSO, 50 mM Trizma base, pH 7.4). Non-specific binding was determined in the presence of 10 uM unlabeled naloxone or U69,593. All reactions were performed in 96-well polypropylene plates for 1 hour at a temperature of about 25 C. Binding reactions were terminated by rapid filtration onto 96-well Unifilter GF/C filter plates (Perkin Elmer, Shelton, Conn.) presoaked in 0.5% polyethylenimine (Sigma). Harvesting was performed using a 96-well tissue harvester (Perkin Elmer, Shelton, Conn.) followed by five filtration washes with 200 ul ice-cold binding buffer. Filter plates were subsequently dried at 50 C. for 1-2 hours. Fifty ul/well scintillation cocktail (Perkin Elmer, Shelton, Conn.) was added.
# Mu-type opioid receptor = Mu-type opioid receptor (Homo sapiens, UniProt P35372); experiment: Radioligand Dose-Displacement Binding Assay; conditions: pH 7.4; 50 °C
# Protocol: mu-Opioid Receptor Binding Assay Procedures: Radioligand dose-displacement binding assays for mu-opioid receptors used 0.3 nM [3H]-diprenorphine (Perkin Elmer, Shelton, Conn.), with […]/well in a final volume of 500 ul binding buffer (10 mM MgCl2, 1 mM EDTA, 5% DMSO, 50 mM HEPES, pH 7.4). Reactions were carried out in the absence or presence of increasing concentrations of unlabeled naloxone. All reactions were conducted in 96-deep well polypropylene plates for 2 hours at room temperature. Binding reactions were terminated by rapid filtration onto 96-well Unifilter GF/C filter plates (Perkin Elmer, Shelton, Conn.), presoaked in 0.5% polyethylenimine using a 96-well tissue harvester (Perkin Elmer, Shelton, Conn.) followed by performing three filtration washes with 500 ul of ice-cold binding buffer. Filter plates were subsequently dried at 50 C. for 2-3 hours. BetaScint scintillation cocktail (Perkin Elmer, Shelton, Conn.) was added (50 ul/well).
# Sequence of Mu-type opioid receptor (P35372 whole entry): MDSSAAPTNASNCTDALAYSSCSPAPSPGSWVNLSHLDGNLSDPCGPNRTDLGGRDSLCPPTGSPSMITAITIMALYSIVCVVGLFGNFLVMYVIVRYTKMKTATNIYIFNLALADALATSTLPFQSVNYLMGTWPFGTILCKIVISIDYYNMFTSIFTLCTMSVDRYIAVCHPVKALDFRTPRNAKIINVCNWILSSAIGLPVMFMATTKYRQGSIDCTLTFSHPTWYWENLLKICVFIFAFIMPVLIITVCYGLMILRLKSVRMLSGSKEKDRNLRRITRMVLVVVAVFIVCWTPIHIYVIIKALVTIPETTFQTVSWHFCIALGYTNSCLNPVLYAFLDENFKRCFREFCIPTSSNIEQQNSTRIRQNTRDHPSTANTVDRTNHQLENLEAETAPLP
# Sequence of Kappa-type opioid receptor (P41145 whole entry): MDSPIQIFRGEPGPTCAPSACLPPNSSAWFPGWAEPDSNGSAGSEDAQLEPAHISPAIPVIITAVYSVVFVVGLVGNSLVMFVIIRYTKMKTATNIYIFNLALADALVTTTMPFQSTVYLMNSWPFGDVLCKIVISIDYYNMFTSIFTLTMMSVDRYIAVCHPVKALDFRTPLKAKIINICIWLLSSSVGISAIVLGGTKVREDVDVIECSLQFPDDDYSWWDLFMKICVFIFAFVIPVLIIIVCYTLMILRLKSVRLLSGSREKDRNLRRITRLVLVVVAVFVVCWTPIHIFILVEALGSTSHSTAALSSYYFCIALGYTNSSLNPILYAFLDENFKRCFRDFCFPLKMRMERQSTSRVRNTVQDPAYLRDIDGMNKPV
structure (smiles),measurement,setting,value
"COc1ccc2c(c1)[C@]13CCN(C)[C@H](C2)[C@]1(O)CC[C@@]1(C3)NC(=O)NC1=O [US8987287, 9]",Ki,[1],> 20 µM
same,Ki,Mu-type opioid receptor,3.88 µM
